Source: publication PMC7036018 (ACS chemical biology, 2020)

What was measured:
P. aeruginosa [1] = settings: cited from earlier work
P. aeruginosa [2] = assay: PqsE-dependent pyocyanin production; assay type: cell-based, Pseudomonas aeruginosa; settings: 100 μM, overnight at 37°C, OD695
P. aeruginosa [3] = assay: Mass spectrometry of compound levels in cell-free culture fluid and cell lysate; assay type: cell-based, Pseudomonas aeruginosa; settings: positive control

Row | Molecule | effect on in vivo pyocyanin production levels (P. aeruginosa [1]) | effect on pyocyanin production (P. aeruginosa [2]) | concentration in cell lysate over time (P. aeruginosa [3]) | concentration in cell-free culture fluid over time (P. aeruginosa [3])
1 | O=C(O)c1ccccc1-c1cccnc1 [Compound C1, 2-(pyridin-3’-yl) benzoic acid] | does not affect in vivo pyocyanin production levels |  |  | 
2 | meta-bromo-thiolactone [mBTL] |  | known inhibitor of pyocyanin production | increased | progressively decreased
